Measured values taken from PubChem BioAssay AID1963980 (Molecular Pharmacology Branch, DTP, NCI, 2024).

Test system: 475296-252-R-J1-PDC spheroid viability
Experiment: Anticancer human tumor 475296-252-R-J1-PDC patient-derived rectal carcinoma cell line growth inhibition [PI3K]
Conditions: spheroids with HUVEC and MSC; for viability, T/C: stronger effect = lower value
How it was run: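 Viability of mixed-cell spheroids was determined after exposure to pairwise combinations, one partner being inavolisib, alpelisib, duvelisib or copanlisib. Highest tested concentration matched clinical Cmax where known and 10 microM where not, descending in half-log steps.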

[1] = curve of first compound, second compound 0.0316 µM
[2] = curve of first compound, second compound 0.1 µM
[3] = curve of first compound, second compound 0.316 µM
[4] = curve of first compound, second compound 1 µM
[5] = second compound 0.0316 µM, first compound 0.0316 µM
[6] = second compound 0.0316 µM, first compound 0.1 µM
[7] = second compound 0.0316 µM, first compound 0.316 µM
[8] = second compound 0.0316 µM, first compound 1 µM
[9] = second compound 0.0316 µM, first compound 3.16 µM
[10] = second compound 0.0316 µM, first compound 10 µM
[11] = second compound 0.1 µM, first compound 0.0316 µM
[12] = second compound 0.1 µM, first compound 0.1 µM
[13] = second compound 0.1 µM, first compound 0.316 µM
[14] = second compound 0.1 µM, first compound 1 µM
[15] = second compound 0.1 µM, first compound 3.16 µM
[16] = second compound 0.1 µM, first compound 10 µM
[17] = second compound 0.316 µM, first compound 0.0316 µM
[18] = second compound 0.316 µM, first compound 0.1 µM
[19] = second compound 0.316 µM, first compound 0.316 µM
[20] = second compound 0.316 µM, first compound 1 µM
[21] = second compound 0.316 µM, first compound 3.16 µM
[22] = second compound 0.316 µM, first compound 10 µM
[23] = second compound 1 µM, first compound 0.0316 µM
[24] = second compound 1 µM, first compound 0.1 µM
[25] = second compound 1 µM, first compound 0.316 µM
[26] = second compound 1 µM, first compound 1 µM
[27] = second compound 1 µM, first compound 3.16 µM
[28] = second compound 1 µM, first compound 10 µM
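Also: spheroids exposed to agents for seven days before readout.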

With Cn1ncc(Cl)c1-c1cc(C(=O)NC(CN)Cc2cccc(F)c2)sc1Cl (stereo unspecified) + CC(Nc1ccc2c(c1)OCCn1cc(N3C(=O)OCC3C(F)F)nc1-2)C(N)=O the IC50 (curve of first compound, second compound 0.00316 µM) was > 10 µM, the IC50 (curve of first compound, second compound 0.01 µM) was > 10 µM and the IC50 [1] was > 10 µM. For the same compound, the IC50 [2] was > 10 µM, the IC50 [3] was > 10 µM and the IC50 [4] was 5.46 µM. The viability, T/C (second compound 0.00316 µM, first compound 0.0316 µM) was 87.7%, the viability, T/C (second compound 0.00316 µM, first compound 0.1 µM) was 68.7% and the viability, T/C (second compound 0.00316 µM, first compound 0.316 µM) was 76.2%. For the same compound, the viability, T/C (second compound 0.00316 µM, first compound 1 µM) was 63.4%, the viability, T/C (second compound 0.00316 µM, first compound 3.16 µM) was 65% and the viability, T/C (second compound 0.00316 µM, first compound 10 µM) was 67.6%. For the same compound, the viability, T/C (second compound 0.01 µM, first compound 0.0316 µM) was 105%, the viability, T/C (second compound 0.01 µM, first compound 0.1 µM) was 78.6% and the viability, T/C (second compound 0.01 µM, first compound 0.316 µM) was 74.1%. For the same compound, the viability, T/C (second compound 0.01 µM, first compound 1 µM) was 73%, the viability, T/C (second compound 0.01 µM, first compound 3.16 µM) was 73.8% and the viability, T/C (second compound 0.01 µM, first compound 10 µM) was 70.5%. The viability, T/C [5] was 92.6%, the viability, T/C [6] was 88.1% and the viability, T/C [7] was 63.7%. For the same compound, the viability, T/C [8] was 67.4%, the viability, T/C [9] was 52.8% and the viability, T/C [10] was 60.5%. For the same compound, the viability, T/C [11] was 90.7%, the viability, T/C [12] was 104% and the viability, T/C [13] was 86.1%. For the same compound, the viability, T/C [14] was 69.3%, the viability, T/C [15] was 59.4% and the viability, T/C [16] was 52.9%. For the same compound, the viability, T/C [17] was 90.7%, the viability, T/C [18] was 94.3% and the viability, T/C [19] was 85.7%. For the same compound, the viability, T/C [20] was 69.5%, the viability, T/C [21] was 72.8% and the viability, T/C [22] was 51.5%. It also gave a viability, T/C [23] of 92.3%, a viability, T/C [24] of 79% and a viability, T/C [25] of 84.1%. It also gave a viability, T/C [26] of 76.1%, a viability, T/C [27] of 62% and a viability, T/C [28] of 36.6%.
CC(Nc1ncnc2nc[nH]c12)c1cc2cccc(Cl)c2c(=O)n1-c1ccccc1 (stereo unspecified) was tested, and the viability, T/C (compound 0.0316 µM) was 102% [middle of 8 runs], the viability, T/C (compound 0.1 µM) was 96.3% [middle of 8 runs] and the viability, T/C (compound 0.316 µM) was 90.4% [middle of 8 runs]. The viability, T/C (compound 1 µM) was 102% [middle of 8 runs], the viability, T/C (compound 3.16 µM) was 96.3% [middle of 8 runs] and the viability, T/C (compound 10 µM) was 94.9% [middle of 8 runs]. The IC50 (compound alone, run of 06/13/2023) was > 10 µM.
In the case of CC1(C)CCC(CN2CCN(c3ccc(C(=O)NS(=O)(=O)c4ccc(NCC5CCOCC5)c([N+](=O)[O-])c4)c(Oc4cnc5[nH]ccc5c4)c3)CC2)=C(c2ccc(Cl)cc2)C1 + CC(Nc1ncnc2nc[nH]c12)c1cc2cccc(Cl)c2c(=O)n1-c1ccccc1, the IC50 [1] is reported as > 10 µM, the IC50 [2] is reported as > 10 µM and the IC50 [3] is reported as > 10 µM. The IC50 [4] was > 10 µM, the IC50 (curve of first compound, second compound 3.16 µM) was > 10 µM and the IC50 (curve of first compound, second compound 10 µM) was > 10 µM. The viability, T/C [5] was 102%, the viability, T/C [6] was 99.1% and the viability, T/C [7] was 91.2%. It also gave a viability, T/C [8] of 104%, a viability, T/C [9] of 107% and a viability, T/C [10] of 84.2%. It also gave a viability, T/C [11] of 107%, a viability, T/C [12] of 93.8% and a viability, T/C [13] of 98.8%. The viability, T/C [14] was 99.7%, the viability, T/C [15] was 106% and the viability, T/C [16] was 99%. The viability, T/C [17] was 120%, the viability, T/C [18] was 95.4% and the viability, T/C [19] was 97.9%. For the same compound, the viability, T/C [20] was 95%, the viability, T/C [21] was 86.4% and the viability, T/C [22] was 94.3%. The viability, T/C [23] was 86.6%, the viability, T/C [24] was 104% and the viability, T/C [25] was 98.9%. For the same compound, the viability, T/C [26] was 101%, the viability, T/C [27] was 91.8% and the viability, T/C [28] was 91.7%. The viability, T/C (second compound 3.16 µM, first compound 0.0316 µM) was 93.2%, the viability, T/C (second compound 3.16 µM, first compound 0.1 µM) was 99.4% and the viability, T/C (second compound 3.16 µM, first compound 0.316 µM) was 95.1%. It also gave a viability, T/C (second compound 3.16 µM, first compound 1 µM) of 87.6%, a viability, T/C (second compound 3.16 µM, first compound 3.16 µM) of 96.9% and a viability, T/C (second compound 3.16 µM, first compound 10 µM) of 95.6%. For the same compound, the viability, T/C (second compound 10 µM, first compound 0.0316 µM) was 78.5%, the viability, T/C (second compound 10 µM, first compound 0.1 µM) was 91.7% and the viability, T/C (second compound 10 µM, first compound 0.316 µM) was 92%. It also gave a viability, T/C (second compound 10 µM, first compound 1 µM) of 88.9%, a viability, T/C (second compound 10 µM, first compound 3.16 µM) of 90.6% and a viability, T/C (second compound 10 µM, first compound 10 µM) of 81.3%.
